Test results taken from US20080014145A1, “ABALONE SETTLEMENT BIOASSAY FOR ANTI-SEIZURE SUBSTANCE SCREENING” (priority 2006, published 2008).

Experiments:
[1] = test system: larvae of Haliotis discus hannai; conditions: in vivo; cited from earlier work
[2] = test system: Haliotis rufescens larvae; conditions: cited from earlier work; for induction of larvae settlement: in vivo
Haliotis rufescens = conditions: in vivo; cited from earlier work
[3] = test system: two different species of Haliotis; conditions: cited from earlier work
[4] = molecular target: T1, thyroxine-binding globulin (Homo sapiens, UniProt P05543); conditions: cited from earlier work
T1 sequence (P05543 21-415): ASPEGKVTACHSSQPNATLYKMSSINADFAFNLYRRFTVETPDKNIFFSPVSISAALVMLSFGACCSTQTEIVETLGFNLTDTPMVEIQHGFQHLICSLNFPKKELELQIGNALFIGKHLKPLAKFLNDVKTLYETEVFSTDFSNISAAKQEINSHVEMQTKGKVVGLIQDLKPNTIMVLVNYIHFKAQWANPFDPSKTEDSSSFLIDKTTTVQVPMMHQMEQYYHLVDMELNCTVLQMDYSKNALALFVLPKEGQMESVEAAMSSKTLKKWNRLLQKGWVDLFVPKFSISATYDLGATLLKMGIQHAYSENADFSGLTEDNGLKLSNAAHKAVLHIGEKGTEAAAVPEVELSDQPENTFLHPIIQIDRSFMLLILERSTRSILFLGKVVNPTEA

[5] = test system: chemically induced electrographic seizures; test: Focal perfusion of rat cerebral cortex, chemically induced electrographic seizures; type: in vivo; conditions: focal perfusion of local areas of rat cerebral cortex; personal experience

Row | Structure (SMILES) | induction of larvae settlement [2] | other results
1 | CBr [bromomethane] | – | induction in larvae [1]: induction has been triggered
2 | [K+] [potassium] | – | promotion of settlement ([2]; higher concentrations of K^+): will not promote settlement; effect on settlement induction by GABA ([2]; low concentration of K^+): inhibit induction by GABA; larva attached ([2]; ˜10 mM above that found in seawater, within 72 hours): up to 90%
3 | N[C@@H](Cc1cc(I)c(Oc2cc(I)c(O)c(I)c2)c(I)c1)C(=O)O [L-thyroxine] | – | induction of larval metamorphosis (Haliotis rufescens): could induce larval metamorphosis; induction of larval metamorphosis [3]: can induce larval metamorphosis
4 | NCCCC(=O)O [GABA, γ-aminobutyric acid] | – | larval attachment ([2]; 10^−6 molar in sea water): 96-100%
5 | N[C@@H](CCC(=O)O)C(=O)O [L-glutamate] | did slowly promote larval settlement | –
6 | N[C@H](CCC(=O)O)C(=O)O [D-glutamate] | completely ineffective | –
7 | NCC(=O)O [glycine] | can also induce Haliotis larvae settlement | –
8 | CN1C(=O)CN=C(c2ccccc2)c2cc(Cl)ccc21 [diazepam] | – | inhibition of thyroxine binding to thyroxine-binding globulin [4]: competitively inhibit
9 | CCCCN [n-butylamine] | not able to induce | –
10 | CNC[C@H](O)c1ccc(O)c(O)c1 [epinephrine] | not able to induce | –
11 | N[C@@H](Cc1cc(I)c(Oc2ccc(O)c(I)c2)c(I)c1)C(=O)O [T3] | – | induction of larval metamorphosis [3]: can induce larval metamorphosis
12 | NCCCCCC(=O)O [ε-amniocaproic acid] | can also induce Haliotis larvae settlement | –
13 | NC[C@H](O)c1ccc(O)c(O)c1 [norepinephrine] | not able to induce | –
14 | NC(=O)CC[C@H](N)C(=O)O [L-glutamine] | completely ineffective | –
15 | CCCC(=O)O [n-butyric acid] | not able to induce | –
16 | Br [Br^−] | – | induction of settlement by anion replacement ([2]; replacing 25-75% of the Cl^− in seawater): may be induced
17 | NCCc1c[nH]cn1 [histamine] | not able to induce | –
18 | NCCc1c[nH]c2ccc(O)cc12 [serotonin] | not able to induce | –
19 | [Cl-].[K+] [potassium chloride] | – | effect on chemically induced electrographic seizures [5]: may prevent or abort
20 | [Mg+2] [Mg^+2] | not able to induce | –
21 | NCCC(=O)O [β-alanine] | can also induce Haliotis larvae settlement | –
22 | [Na+] [Na^+] | not able to induce | –
23 | NCc1cc(=O)[nH]o1 [muscimol] | can also induce Haliotis larvae settlement | –
24 | NCCCCC(=O)O [δ-amniovaleric] | can also induce Haliotis larvae settlement | –
